Source: patent publication US11590134B2, “Aminopyrimidine amide autophagy inhibitors and methods of use thereof” (Deciphera Pharmaceuticals, LLC, priority 2019, dated 2023)

Tests used:
ULK1 kinase = target: T1, ULK1 kinase (Homo sapiens, UniProt O75385); assay: Biochemical assay for ULK1.2 (coupled pyruvate kinase/lactate dehydrogenase assay); conditions: 19 nM ULK1 (residues 1-314), myelin basic protein substrate, 1 mM ATP
T1 construct: purchased Eurofins 14-959
T1 sequence (O75385 with tags, fused parts or gaps): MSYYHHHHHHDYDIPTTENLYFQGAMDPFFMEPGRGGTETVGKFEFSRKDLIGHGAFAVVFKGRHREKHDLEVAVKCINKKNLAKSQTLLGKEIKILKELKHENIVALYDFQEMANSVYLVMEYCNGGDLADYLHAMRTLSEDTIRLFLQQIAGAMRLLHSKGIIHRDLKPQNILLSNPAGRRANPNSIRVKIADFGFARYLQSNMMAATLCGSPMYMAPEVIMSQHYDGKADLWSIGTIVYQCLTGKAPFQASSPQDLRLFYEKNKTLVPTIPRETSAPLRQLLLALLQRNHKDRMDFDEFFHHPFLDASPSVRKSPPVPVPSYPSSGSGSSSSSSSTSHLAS
Method: (§1) Activity of ULK1 kinase was determined spectroscopically using a coupled pyruvate kinase/lactate dehydrogenase assay that continuously monitors the ATP hydrolysis-dependent oxidation of NADH (e.g., Schindler et al. Science (2000) 289: 1938-1942). Assays were conducted in 384-well plates (100 uL final volume) using 19 nM ULK1 (Eurofins CAT #14-959), 0.25 mg/mL myelin basic protein, 1.5 units pyruvate kinase, 2.1 units lactate dehydrogenase, 1 mM phosphoenol pyruvate, 0.28 mM NADH and 1 mM ATP in assay buffer (100 mM Tris, pH 7.5, 15 mM MgCl2, 0.5 mM DTT, 0.1% octyl-glucoside, 0.002% (w/v) BSA, and 0.002% Triton X-100). Inhibition of ULK1 was measured by adding serial diluted test compound (final assay concentration of 1% DMSO). A decrease in absorption at 340 nm was monitored continuously for 6 hours at 30° C. on a multi-mode microplate reader (BioTek). The reaction rate was calculated using the 2-3 h time frame. The reaction rate at each concentration of compound was converted to percent inhibition using controls (i.e. reaction with no test compound and reaction with a known inhibitor) and IC50 values were calculated by fitting a four-parameter sigmoidal curve to the data using Prism (GraphPad software).

LRRK2 kinase = target: T2, LRRK2 kinase (Homo sapiens, UniProt Q5S007); assay: Biochemical assay for LRRK2 (coupled pyruvate kinase/lactate dehydrogenase assay); conditions: 26.4 nM LRRK2 (residues 970-2528), peptide substrate, 1 mM ATP
T2 construct: (residues 970-2528; ID NO; 4); purchased Thermo Fisher
Method: Activity of LRRK2 kinase was determined spectroscopically using a coupled pyruvate kinase/lactate dehydrogenase assay that continuously monitors the ATP hydrolysis-dependent oxidation of NADH (e.g., Schindler et al. Science (2000) 289: 1938-1942). Assays were conducted in 384-well plates (100 uL final volume) using 26.4 nM LRRK2 (Thermo Fisher), 0.1 mM peptide substrate (RLGRDKYKTLRQIRQ (SEQ ID NO: 6)), 1.5 units pyruvate kinase, 2.1 units lactate dehydrogenase, 1 mM phosphoenol pyruvate, 0.28 mM NADH and 1 mM ATP in assay buffer (100 mM Tris, pH 7.5, 15 mM MgCl2, 0.5 mM DTT, 0.004% (w/v) BSA, and 0.004% Triton X-100). Inhibition of LRRK2 was measured by adding serial diluted test compound (final assay concentration of 1% DMSO). A decrease in absorption at 340 nm was monitored continuously for 6 hours at 30° C. on a multi-mode microplate reader (BioTek). The reaction rate was calculated using the 2-3 h time frame. The reaction rate at each concentration of compound was converted to percent inhibition using controls (i.e. reaction with no test compound and reaction with a known inhibitor) and IC50 values were calculated using software routines in Prism (GraphPad software).

[1] = test system: ULK kinase substrate ATG13 (phospho-Serine 318 ATG13) in A549 cells; assay: pATG13 ELISA in mutant KRas A549 cells in combination with trametinib; assay type: cell-based; conditions: A549 (KRAS mutant) human lung cancer cells, with 250 nM trametinib, overnight
Method: A549 (KRAS mutant) human lung cancer cells (6,000 cells/well) were added to a 384-well tissue-culture treated plate in 50 μL of pre-warmed DMEM medium supplemented with 10% characterized fetal bovine serum (Invitrogen, Carlsbad, Calif.), 100 units/mL penicillin G, and 100 μg/mL streptomycin and allowed to grow overnight at 37° C., 5% CO2, and 95% humidity. The following day, 10 μL of media containing trametinib or DMSO as a control was added to wells. The final concentration of trametinib in wells was 250 nM. A dose response of a test compound (0.6 μL per well) was added. DMSO (0.6 μL) was added to control wells. The plate was briefly shaken to mix wells and then incubated at 37° C. overnight. The next day, the media was aspirated and cells were washed with Dulbecco's Phosphate Buffered Saline (Gibco). Cells were lysed using MPER lysis buffer (Pierce, Rockford, Ill.) containing Halt Phosphatase and Protease Inhibitors (Pierce, Rockford, Ill.) and Phosphatase inhibitor cocktail 2 (Sigma, St. Louis, Mo.) at 4° C. for 10 minutes with shaking.
Cellular levels of phospho-Serine 318 ATG13 (pATG13) were measured via an ELISA method. Total ATG13 Antibody (Cell Signaling Cat #13273) was used to coat the wells. The plate was incubated at 4° C. overnight and washed with ELISA wash buffer (Biolegend Cat #421601). The wells were then blocked with assay diluent (Biolegend Cat #421203) for 1 hour at room temperature. Plate wells were washed with ELISA wash buffer. Cell lysate was added to wells and incubated at room temperature for 2 hours. Plate wells were washed with ELISA wash buffer. Biotinylated pS318-ATG13 antibody (Rockland Immunochemicals Cat #600-401-C49) was diluted in assay diluent and added to each well and incubated at room temperature for 1 hour. Plate wells were washed with ELISA wash buffer. Streptavidin linked to horseradish peroxidase (Thermo Fisher Cat #21140) was diluted in assay diluent and added to each well and incubated at room temperature for 1 hour. Plate wells were washed with ELISA wash buffer. High sensitivity TMB substrate (Biolegend Cat #421101) was added to each well and incubated at room temperature for 20 minutes. The reaction was stopped with 2N Sulfuric Acid. The plate was analyzed at on a plate reader measuring absorbance at 450 nm and 540 nm (background). Signal was calculated by first subtracting the background absorbance at 540 nm from the absorbance at 450 nm for each well. Next, the background corrected absorbance at 450 nm from blank wells was subtracted from test wells. Data was compared to control wells to determine % ATG13 phosphorylation. GraphPad Prism was used to calculate IC50 values.

ULK2 kinase = target: T3, ULK2 kinase (Homo sapiens, UniProt Q8IYT8); assay: Biochemical assay for ULK2 (coupled pyruvate kinase/lactate dehydrogenase assay); conditions: 9.7 nM ULK2 (residues 1-306), myelin basic protein substrate, 1 mM ATP; read-out: ULK2.2
T3 construct: purchased Eurofins 14-772
Method: as §1, with “of ULK2” for “of ULK1”, “using 9.7” for “using 19”, “nM ULK2” for “nM ULK1”, “CAT #14-772),” for “CAT #14-959),”

T3 sequence (Q8IYT8 with tags, fused parts or gaps): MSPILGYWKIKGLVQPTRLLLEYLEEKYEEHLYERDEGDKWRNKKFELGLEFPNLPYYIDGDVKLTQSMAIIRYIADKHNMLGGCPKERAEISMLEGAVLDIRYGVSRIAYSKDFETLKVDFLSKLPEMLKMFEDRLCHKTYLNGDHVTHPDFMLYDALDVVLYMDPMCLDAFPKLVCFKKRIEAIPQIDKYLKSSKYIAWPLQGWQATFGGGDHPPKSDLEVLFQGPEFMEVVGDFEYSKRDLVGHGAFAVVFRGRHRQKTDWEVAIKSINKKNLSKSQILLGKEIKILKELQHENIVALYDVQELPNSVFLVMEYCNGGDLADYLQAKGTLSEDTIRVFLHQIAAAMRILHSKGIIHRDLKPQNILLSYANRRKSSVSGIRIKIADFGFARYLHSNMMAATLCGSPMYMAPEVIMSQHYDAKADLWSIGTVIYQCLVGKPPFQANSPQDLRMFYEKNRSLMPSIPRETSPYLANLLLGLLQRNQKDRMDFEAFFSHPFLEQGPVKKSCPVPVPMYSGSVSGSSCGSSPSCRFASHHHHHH
T2 sequence (Q5S007 with tags, fused parts or gaps): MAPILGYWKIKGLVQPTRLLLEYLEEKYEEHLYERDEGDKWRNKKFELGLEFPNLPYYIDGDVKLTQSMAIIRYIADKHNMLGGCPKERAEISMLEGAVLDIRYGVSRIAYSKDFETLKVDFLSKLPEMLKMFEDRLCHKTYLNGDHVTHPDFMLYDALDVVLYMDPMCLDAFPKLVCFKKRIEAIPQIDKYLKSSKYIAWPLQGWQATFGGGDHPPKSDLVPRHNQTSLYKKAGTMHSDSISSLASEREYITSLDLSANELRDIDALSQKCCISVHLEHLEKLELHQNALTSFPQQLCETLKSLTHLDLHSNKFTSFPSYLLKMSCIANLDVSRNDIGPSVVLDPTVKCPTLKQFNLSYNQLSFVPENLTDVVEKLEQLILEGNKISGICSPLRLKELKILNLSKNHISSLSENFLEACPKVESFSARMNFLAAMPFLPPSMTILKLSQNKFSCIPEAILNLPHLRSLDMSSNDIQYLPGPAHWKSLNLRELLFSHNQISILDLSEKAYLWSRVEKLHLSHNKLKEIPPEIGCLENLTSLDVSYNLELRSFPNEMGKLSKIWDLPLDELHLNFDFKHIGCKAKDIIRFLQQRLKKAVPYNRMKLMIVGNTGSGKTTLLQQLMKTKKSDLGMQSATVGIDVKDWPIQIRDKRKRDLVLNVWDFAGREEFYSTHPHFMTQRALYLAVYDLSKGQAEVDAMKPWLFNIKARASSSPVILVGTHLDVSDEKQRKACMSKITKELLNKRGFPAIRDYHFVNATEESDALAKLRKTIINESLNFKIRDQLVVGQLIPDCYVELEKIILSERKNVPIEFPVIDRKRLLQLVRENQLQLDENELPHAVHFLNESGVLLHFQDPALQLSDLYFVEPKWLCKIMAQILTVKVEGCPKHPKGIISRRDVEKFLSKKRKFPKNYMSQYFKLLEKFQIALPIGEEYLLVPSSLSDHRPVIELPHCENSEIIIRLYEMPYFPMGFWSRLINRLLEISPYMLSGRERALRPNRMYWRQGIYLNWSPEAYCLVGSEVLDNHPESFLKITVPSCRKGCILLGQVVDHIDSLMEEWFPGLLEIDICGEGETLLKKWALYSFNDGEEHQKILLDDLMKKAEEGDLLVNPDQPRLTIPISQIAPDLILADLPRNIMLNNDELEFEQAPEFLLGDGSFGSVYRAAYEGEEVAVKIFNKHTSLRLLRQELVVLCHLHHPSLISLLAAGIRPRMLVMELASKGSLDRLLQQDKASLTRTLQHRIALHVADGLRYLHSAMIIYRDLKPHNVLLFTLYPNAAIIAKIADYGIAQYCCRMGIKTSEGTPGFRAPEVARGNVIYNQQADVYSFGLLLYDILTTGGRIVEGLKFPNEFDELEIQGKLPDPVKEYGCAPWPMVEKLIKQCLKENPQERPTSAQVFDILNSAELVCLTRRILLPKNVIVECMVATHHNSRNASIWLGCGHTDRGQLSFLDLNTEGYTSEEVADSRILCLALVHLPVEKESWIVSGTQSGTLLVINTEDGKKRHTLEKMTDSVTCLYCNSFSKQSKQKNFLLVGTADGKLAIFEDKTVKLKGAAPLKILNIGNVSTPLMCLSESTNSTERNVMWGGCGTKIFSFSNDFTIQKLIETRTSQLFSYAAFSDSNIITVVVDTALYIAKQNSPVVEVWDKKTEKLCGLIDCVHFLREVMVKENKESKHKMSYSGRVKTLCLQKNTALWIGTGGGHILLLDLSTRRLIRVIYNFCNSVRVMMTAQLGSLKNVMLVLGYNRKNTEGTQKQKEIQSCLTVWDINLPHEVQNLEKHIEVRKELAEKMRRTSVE

Row | Compound | IC50 (ULK1 kinase) [nM] | IC50 (LRRK2 kinase) [nM] | IC50 [1] [nM] | IC50 (ULK2 kinase) [nM]
1 | Cc1cc(N2CCN(C)CC2)ncc1Nc1ncc(C(F)(F)F)c(NCCCNC(=O)C2CCC2)n1 [Example 5] | 100 to 500 | 600 to 20000 | – | 100 to 500
2 | Cc1cc(N2CCOCC2)ncc1Nc1ncc(C(F)(F)F)c(NCCCNC(=O)C2CCC2)n1 [Example 6] | 500 to 20000 | 300 to 600 | – | 500 to 20000
3 | COc1cc(N2CCN(C)CC2)ccc1Nc1ncc(C2CC2)c(NCCCNC(=O)C2CCC2)n1 [Example 11] | 500 to 20000 | 600 to 20000 | – | –
4 | Cc1cc(C2CCNCC2)ccc1Nc1ncc(C(F)(F)F)c(NCCCN(C)C(=O)C2CCC2)n1 [Example 16] | 1 to 25 | 1 to 100 | 100 to 300 | 25 to 100
5 | Cc1cc(C2CCN(C)CC2)ccc1Nc1ncc(C(F)(F)F)c(NCCCN(C)C(=O)C2CCC2)n1 [Example 18] | 1 to 25 | 1 to 100 | – | –
6 | [2H]C([2H])([2H])N1CCC(n2cc(Nc3ncc(C(F)(F)F)c(NCCCNC(=O)C4CCC4)n3)c(C)n2)CC1 [Example 20] | 1 to 25 | 100 to 300 | 100 to 300 | 25 to 100
7 | Cc1nn(C2CCNCC2)cc1Nc1ncc(C(F)(F)F)c(NCCCNC(=O)C2CCC2)n1 [Example 21, N-(3-((2-((3-methyl-1-(piperidin-4-yl)-1H-pyrazol-4-yl)amino)-5-(trifluoromethyl)pyrimidin-4-yl)amino)propyl)cyclobutanecarboxamide] | 1 to 25 | 1 to 100 | 100 to 300 | 25 to 100
8 | Cc1nn(C2CCN(C(C)C)CC2)cc1Nc1ncc(C(F)(F)F)c(NCCCNC(=O)C2CCC2)n1 [Example 22, N-(3-((2-((1-(1-isopropylpiperidin-4-yl)-3-methyl-1H-pyrazol-4-yl)amino)-5-(trifluoromethyl)pyrimidin-4-yl)amino)propyl)cyclobutanecarboxamide] | 25 to 100 | 1 to 100 | 300 to 600 | –
9 | Cc1nn(C2CCN(CC(C)C)CC2)cc1Nc1ncc(C(F)(F)F)c(NCCCNC(=O)C2CCC2)n1 [Example 23] | 1 to 25 | 1 to 100 | 10 to 100 | 25 to 100
10 | Cc1nn(C2CCN(C)CC2)cc1Nc1ncc(C2CC2)c(NCCCNC(=O)C2CCC2)n1 [Example 25] | 100 to 500 | 600 to 20000 | – | –
11 | [2H]C([2H])([2H])N1CCC(n2cc(Nc3ncc(Br)c(NCCCNC(=O)C4CCC4)n3)c(C)n2)CC1 [Example 29] | 25 to 100 | 100 to 300 | – | –

The remaining lines, values ahead:

Row | IC50 (ULK1 kinase) [nM] | IC50 (LRRK2 kinase) [nM] | IC50 [1] [nM] | IC50 (ULK2 kinase) [nM] | Compound
12 | 1 to 25 | 1 to 100 | 100 to 300 | – | Cc1cc(N2CCN(C)CC2)ccc1Nc1ncc(C(F)(F)F)c(NCCCNC(=O)C2CCC2)n1 [Example 2]
13 | 100 to 500 | 1 to 100 | – | – | Cc1cc(C2CCNCC2)ccc1Nc1ncc(Cl)c(NCCCN(C)C(=O)C2CCC2)n1 [Example 15]
14 | 100 to 500 | 1 to 100 | – | – | Cc1cc(C2CCN(C)CC2)ccc1Nc1ncc(Cl)c(NCCCN(C)C(=O)C2CCC2)n1 [Example 17]
15 | 100 to 500 | 600 to 20000 | – | – | Cc1nn(C2CCNCC2)cc1Nc1ncc(C2CC2)c(NCCCNC(=O)C2CCC2)n1 [Example 24]
16 | 1 to 25 | 1 to 100 | – | 25 to 100 | Cc1nn(C2CCN(C)CC2)cc1Nc1ncc(Cl)c(NCCCN(C)C(=O)C2CCC2)n1 [Example 27]
17 | 100 to 500 | – | – | – | Cc1cc(N2CCN(C)CC2)ncc1Nc1cc(NCCCNC(=O)C2CCC2)c(C(F)(F)F)cn1 [Example 31, N-(3-((2-((4-methyl-6-(4-methylpiperazin-1-yl)pyridin-3-yl)amino)-5-(trifluoromethyl)pyridin-4-yl)amino)propyl)cyclobutanecarboxamide]
